The values below come from US20050203175A1, “Parenteral composition of paracetamol” (priority 2001, published 2005).

The conditions of data set [1]: cited from earlier work.
For data set [2] the following is noted: cited from earlier work. This is another data set of the same source.
Data set [3] can be described thus: Solubility in water and organic solvents. It is filed as physicochemical. An excerpt:
Paracetamol is soluble in Methanol, Ethanol, DMF, Ethylene chlorine, Benzyl ethanol and other organic solvents, but none of them can be used alone or in a mixture, because of their toxicity.

Data set [4] has as its system liver cytochrome P-450. The settings on record: in vivo; cited from earlier work.

As for `CC(=O)Nc1ccc(O)cc1` [Paracetamol], the “absorption when intramuscularly administered” value in data set [1] (intramuscular, blood level similar to that after oral administration) is “well absorbed”. Moreover, in data set [1] (oral administration, does not exist with injectable Paracetamol), the “loss of the drug observed after oral administration” value is 20%. Also, the “excreted through urines as conjugated derivative of glucouronic acid” value in data set [2] (glucouronic acid conjugate) is recorded as 60%. Further, in data set [2] (sulfuric acid conjugate), the “excreted through urines as conjugated derivative of sulfuric acid” value was 35%. Further, the “excreted through urines as conjugated derivatives” value in data set [2] (total of sulfuric and glucouronic acid conjugates) is 95%. Moreover, the excreted unchangeable in data set [2] (unchanged drug) is 2%. Further, the “solubility in organic solvents” value in data set [3] (Methanol, Ethanol, DMF, Ethylene chlorine, Benzyl ethanol and other organic solvents) is on record as “soluble”. Further, the solubility in water result in data set [3] (water) is “practically insoluble”. The “part oxidized by the liver cytochrome P-450 to a toxic intermediate metabolite” value in data set [4] is “approx. 3%”.
